According to patent US20110039825A1, “LIGANDS OF ALPHA-ADRENOCEPTORS, DOPAMINE, HISTAMINE, IMIDAZOLINE AND SEROTONIN RECEPTORS AND THEIR USE” (Alla Chem, LLC, priority 2007, published 2011):
Structures can show the parent of a compound that is named as a salt.

Columns and labels:
[1] = molecular target: T1, recombinant human 5-HT1A (Homo sapiens, UniProt P08908); assay: radioligand binding to serotonin receptor 5-HT1A ([3H] 8-OH-DPAT); conditions: for inhibition at 1 µM: ligand concentration 1 μM
T1 construct: expressed in transfected cells; host or cells: CHO
T1 sequence (P08908 1-422): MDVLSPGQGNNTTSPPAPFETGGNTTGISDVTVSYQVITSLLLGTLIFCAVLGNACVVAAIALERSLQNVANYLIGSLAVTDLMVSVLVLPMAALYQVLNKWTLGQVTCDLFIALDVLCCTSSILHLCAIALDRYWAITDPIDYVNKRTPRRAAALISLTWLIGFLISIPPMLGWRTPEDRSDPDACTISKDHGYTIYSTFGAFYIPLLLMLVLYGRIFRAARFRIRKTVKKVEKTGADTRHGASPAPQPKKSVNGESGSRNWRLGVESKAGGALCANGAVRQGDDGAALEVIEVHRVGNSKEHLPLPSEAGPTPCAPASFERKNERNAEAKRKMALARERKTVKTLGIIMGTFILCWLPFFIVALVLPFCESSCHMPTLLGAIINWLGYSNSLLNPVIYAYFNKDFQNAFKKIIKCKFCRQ
From the text: J Pharmacol Exp Ther. 306(1): 301-309, 2003]. […] Metergoline is used as positive control.

[2] = molecular target: T2, recombinant human 5-HT2B receptor (Homo sapiens, UniProt P41595); assay: radioligand binding to serotonin receptor 5-HT2B ([3H] Lysergic acid diethylamide)
T2 construct: expressed in transfected cells; host or cells: CHO-K1
Experimental: Screening of the disclosed compounds for potential ability to interact with serotonin receptor 5-HT2A is carried out by method of radioligand binding. For this purpose membrane species are prepared from CHO-K1 cells comprising recombinant human 5-HT2B receptor by homogenization of recombinant cells in glass homogenizer with the subsequent separation of plasmatic membranes from cell nuclei, mitochondrias and cell wreckages by differential centrifugation. […] After incubation the samples are filtered in vacuo on glass-microfiber filters G/F (Millipor, USA), filters are washed three times with cold solution of medium and radioactivity is measured by scintillation counter MicroBeta 340 (Perkin Elmer, USA). […] Ketanserin is used as positive control. The tested compounds' binding to the receptor is determined by their ability to displace the radioligand and is expressed in percent of displacement (% I). Values of % I are calculated according to the following equation:
wherein: TA—is the overall radioactivity in the presence of radioligand only, CA—is the radioactivity in the presence of radioligand and tested compound and NA—is the radioactivity in the presence of radioligand and Serotonin (10 μM).

[3] = molecular target: T3, human 5-HT7 receptor (Homo sapiens, UniProt P34969); assay: radioligand binding to serotonin receptor 5-HT7 ([3H] Lysergic acid diethylamide)
T3 construct: expressed in transfected cells; host or cells: CHO
From the text: For this purpose sDNA of human 5-HT7 receptor is expressed in CHO cells as it was described in [Shen Y, Monsma F J Jr, Metcalf M A, Jose P A, Hamblin M W, and Sibley DR. […] J. Biol. Chem. 1993, 268, 18200-18204]. […] J. Pharmacol. Exp. Ther. 1994, 268:1403-1410]. […] Methiothepin is used as positive control.

[4] = molecular target: T4, recombinant human 5-HT2A receptor (Homo sapiens, UniProt P28223); assay: radioligand binding to serotonin receptor 5-HT2A ([3H] Ketanserin)
T4 construct: expressed in transfected cells; host or cells: CHO-K1
Experimental: 9-C. […] J. Neurochem. […] Ketanserin is used as positive control. […] Values of % I is calculated according to the following equation: […]

[5] = molecular target: T5, recombinant human 5-HT6 receptor (Homo sapiens, UniProt P50406); assay: radioligand binding to serotonin receptor 5-HT6 ([3H] Lysergic acid diethylamide); conditions: for inhibition at 1 µM: ligand concentration 1 μM, read-out: 5-HT6 % inhibition
T5 construct: expressed in transfected cells; host or cells: HeLa
From the text: Mol. Pharmacol. 43:320-327, 1993]. […] Methiothepin is used as positive control.

[6] = molecular target: T6, recombinant human 5-HT2C receptor (Homo sapiens, UniProt P28335); assay: radioligand binding to serotonin receptor 5-HT2C ([3H] Mesulergine)
T6 construct: expressed in transfected cells; host or cells: CHO-K1
T6 sequence (P28335 33-458): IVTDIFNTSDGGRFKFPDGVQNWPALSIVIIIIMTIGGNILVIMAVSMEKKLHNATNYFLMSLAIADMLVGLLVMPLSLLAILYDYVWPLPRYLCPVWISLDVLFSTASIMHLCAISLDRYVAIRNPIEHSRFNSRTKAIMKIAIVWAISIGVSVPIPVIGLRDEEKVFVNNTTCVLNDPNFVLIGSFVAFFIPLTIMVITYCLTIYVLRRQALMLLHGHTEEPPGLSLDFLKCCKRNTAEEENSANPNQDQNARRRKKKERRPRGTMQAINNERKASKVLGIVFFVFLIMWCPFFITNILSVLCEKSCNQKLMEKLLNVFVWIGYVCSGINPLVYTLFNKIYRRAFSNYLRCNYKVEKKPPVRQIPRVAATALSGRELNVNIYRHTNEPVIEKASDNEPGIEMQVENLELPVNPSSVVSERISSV
From the text: J. Neurochem. 69: 1449-1458, 1997]. […] SB242084 is used as positive control.

[7] = system: imidazoline receptor I2; assay: radioligand binding to imidazoline receptor I2 ([3H] Idazoxan); set-up: species or system rat
Experimental: Determination of investigated compounds' binding to imidazoline I2 receptor is carried out according to the method described in [Brown C M, MacKinnon A C, McGrath J C, Spedding M and Kilpatrick A T, a2-Adrenoceptor subtypes and imidazoline-like binding in the rat brain. Br J. Pharmacol. 99:803-809, 1990]. […] Idazoxan is used as positive control.

[8] = molecular target: T7, adrenergic receptor α1A (Rattus norvegicus, UniProt P43140); assay: radioligand binding to adrenergic receptor α1A ([3H] Prazosin); conditions: 10 μM ligand
T7 construct: membrane species from rat submaxillary glands (rat of Wistar breed) are prepared; from tissue; host or cells: rat (Wistar) submaxillary gland membranes
T7 sequence (P43140 1-466): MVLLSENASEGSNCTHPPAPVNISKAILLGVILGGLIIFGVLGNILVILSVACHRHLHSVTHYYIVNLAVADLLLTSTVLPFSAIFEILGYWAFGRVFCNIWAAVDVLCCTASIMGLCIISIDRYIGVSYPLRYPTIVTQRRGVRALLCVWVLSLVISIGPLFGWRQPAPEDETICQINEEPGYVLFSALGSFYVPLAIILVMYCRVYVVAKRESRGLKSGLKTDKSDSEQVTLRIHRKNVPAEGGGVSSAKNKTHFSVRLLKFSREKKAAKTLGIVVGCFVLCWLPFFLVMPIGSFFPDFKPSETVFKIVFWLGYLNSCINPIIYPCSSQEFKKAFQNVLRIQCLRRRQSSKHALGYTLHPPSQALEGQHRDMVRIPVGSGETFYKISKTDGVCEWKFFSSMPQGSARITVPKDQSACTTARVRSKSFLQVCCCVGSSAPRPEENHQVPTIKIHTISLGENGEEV
Experimental: Determination of investigated compounds' binding to α1A receptor was carried out according to the method described in [Michel A D, Loury D N and Whiting R l. Identification of a single α1A-adrenoceptor corresponding to the α1A-subtype in rat submaxillary gland. Br J. Pharmacol. 98:883-889, 1989]. […] Prazosin is used as positive control.

[9] = molecular target: T8, human α2A receptor (Homo sapiens, UniProt P08913); assay: radioligand binding to adrenergic receptor α2A ([3H] MK-912); conditions: 10 μM ligand
T8 construct: expressed in transfected cells; host or cells: Sf9
T8 sequence (P08913 1-465): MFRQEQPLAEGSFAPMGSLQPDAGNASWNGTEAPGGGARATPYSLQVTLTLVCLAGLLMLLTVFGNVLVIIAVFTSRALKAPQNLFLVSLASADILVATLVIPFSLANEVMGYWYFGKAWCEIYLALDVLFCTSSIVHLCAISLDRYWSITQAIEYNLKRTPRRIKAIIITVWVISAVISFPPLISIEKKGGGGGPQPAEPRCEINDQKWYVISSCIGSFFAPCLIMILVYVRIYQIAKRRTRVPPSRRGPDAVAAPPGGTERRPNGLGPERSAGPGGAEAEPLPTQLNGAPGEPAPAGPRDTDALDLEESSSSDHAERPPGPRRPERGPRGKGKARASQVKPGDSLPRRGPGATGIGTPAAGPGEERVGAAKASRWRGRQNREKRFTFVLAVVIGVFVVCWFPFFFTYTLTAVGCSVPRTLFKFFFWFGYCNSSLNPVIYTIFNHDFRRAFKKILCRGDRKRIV
From the text: J Pharmacol ExpTher. […] Yohimbine is used as positive control.

[10] = molecular target: T9, adrenergic receptor α1B (Rattus norvegicus, UniProt P15823); assay: radioligand binding to adrenergic receptor α1B ([3H] Prazosin); conditions: 10 μM ligand
T9 construct: membrane species from rat liver (rat of Wistar breed) are prepared; from tissue; host or cells: rat (Wistar) liver membranes
T9 sequence (P15823 1-515): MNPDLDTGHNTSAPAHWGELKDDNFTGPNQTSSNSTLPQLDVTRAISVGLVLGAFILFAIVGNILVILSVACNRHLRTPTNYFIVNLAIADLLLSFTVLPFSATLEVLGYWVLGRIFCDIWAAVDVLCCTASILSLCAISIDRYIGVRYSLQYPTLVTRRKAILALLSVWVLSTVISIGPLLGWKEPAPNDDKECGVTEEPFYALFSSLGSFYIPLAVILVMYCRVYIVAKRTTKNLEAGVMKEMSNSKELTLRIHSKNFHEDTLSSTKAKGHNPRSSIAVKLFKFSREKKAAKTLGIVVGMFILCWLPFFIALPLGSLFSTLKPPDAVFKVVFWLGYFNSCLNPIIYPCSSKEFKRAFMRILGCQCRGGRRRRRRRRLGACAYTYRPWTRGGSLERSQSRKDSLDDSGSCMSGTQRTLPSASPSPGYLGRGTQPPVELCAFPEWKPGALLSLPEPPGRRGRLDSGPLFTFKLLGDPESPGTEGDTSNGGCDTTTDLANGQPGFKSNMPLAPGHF
From the text: Species heterogeneity of hepatic α1A-, α1B-, and α1C-subtypes. Biochem Biophys Res Commun. 186:760-7676 1992]. […] Prazosin is used as positive control.

[11] = molecular target: T10, human α1D receptor (Homo sapiens, UniProt P25100); assay: radioligand binding to adrenergic receptor α1D ([3H] Prazosin); conditions: 10 μM ligand
T10 construct: expressed in transfected cells; host or cells: HEK-293
T10 sequence (P25100 1-572): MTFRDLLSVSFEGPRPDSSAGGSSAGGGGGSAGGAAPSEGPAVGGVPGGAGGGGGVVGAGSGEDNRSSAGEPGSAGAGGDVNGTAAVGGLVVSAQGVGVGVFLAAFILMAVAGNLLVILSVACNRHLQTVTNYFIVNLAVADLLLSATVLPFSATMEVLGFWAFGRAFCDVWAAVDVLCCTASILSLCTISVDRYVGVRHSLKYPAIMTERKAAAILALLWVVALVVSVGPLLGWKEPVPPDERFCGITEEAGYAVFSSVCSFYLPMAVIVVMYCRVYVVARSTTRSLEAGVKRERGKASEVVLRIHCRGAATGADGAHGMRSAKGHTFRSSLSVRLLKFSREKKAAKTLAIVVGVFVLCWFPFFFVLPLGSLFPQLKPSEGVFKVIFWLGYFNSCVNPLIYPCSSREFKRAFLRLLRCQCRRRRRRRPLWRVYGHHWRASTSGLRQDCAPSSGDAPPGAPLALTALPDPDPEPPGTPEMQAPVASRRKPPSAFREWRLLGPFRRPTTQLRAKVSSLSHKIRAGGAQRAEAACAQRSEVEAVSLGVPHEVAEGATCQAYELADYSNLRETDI
From the text: 6-C. […] For this purpose sDNA of human α1D receptor is expressed in HEK-293 cells, as it was described in [T L Theroux, T A Esbenshade, R D Peavy and K P Minneman. Coupling efficiencies of human alpha 1-adrenergic receptor subtypes: titration of receptor density and responsiveness with inducible and repressible expression vectors. Mol. Pharmacol.; 50: 1376-1387, 1996]. […] Prazosin is used as positive control.

[12] = molecular target: T11, human H1 receptor (Homo sapiens, UniProt P35367); assay: radioligand binding to histamine receptor H1 ([3H] Pyrilamine); conditions: 10 μM ligand
T11 construct: expressed in transfected cells; host or cells: CHO-K1
From the text: Biochem Biophys Res Comm. 197(3): 1601-1608, 1993]. […] Biochem Biophys Res Comm. 197(3): 1601-1608, 1993].
Pyrilamine is used as positive control.

T2 sequence (P41595 whole entry): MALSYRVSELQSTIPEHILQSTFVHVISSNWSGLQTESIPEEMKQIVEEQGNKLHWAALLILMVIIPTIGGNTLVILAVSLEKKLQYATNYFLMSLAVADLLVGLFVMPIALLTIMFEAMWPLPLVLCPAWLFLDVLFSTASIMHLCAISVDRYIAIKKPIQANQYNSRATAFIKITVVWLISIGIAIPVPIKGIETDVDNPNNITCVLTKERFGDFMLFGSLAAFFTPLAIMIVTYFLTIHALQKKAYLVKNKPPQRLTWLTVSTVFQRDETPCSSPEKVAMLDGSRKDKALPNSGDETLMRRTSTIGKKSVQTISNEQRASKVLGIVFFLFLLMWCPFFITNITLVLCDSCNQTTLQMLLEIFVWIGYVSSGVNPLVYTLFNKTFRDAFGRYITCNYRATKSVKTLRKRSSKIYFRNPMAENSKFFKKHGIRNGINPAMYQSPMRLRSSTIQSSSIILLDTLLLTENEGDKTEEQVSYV
T4 sequence (P28223 whole entry): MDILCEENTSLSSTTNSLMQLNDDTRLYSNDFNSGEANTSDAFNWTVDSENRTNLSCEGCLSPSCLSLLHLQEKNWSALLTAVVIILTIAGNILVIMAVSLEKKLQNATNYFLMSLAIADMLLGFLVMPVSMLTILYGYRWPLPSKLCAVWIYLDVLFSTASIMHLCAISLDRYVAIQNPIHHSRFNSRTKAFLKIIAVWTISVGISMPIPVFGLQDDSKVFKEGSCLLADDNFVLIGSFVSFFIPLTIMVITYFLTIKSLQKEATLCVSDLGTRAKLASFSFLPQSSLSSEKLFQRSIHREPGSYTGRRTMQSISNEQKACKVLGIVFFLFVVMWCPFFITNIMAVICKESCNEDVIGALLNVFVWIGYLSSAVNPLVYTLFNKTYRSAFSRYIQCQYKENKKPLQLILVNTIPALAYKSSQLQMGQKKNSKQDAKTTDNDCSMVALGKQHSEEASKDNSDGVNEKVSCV
T5 sequence (P50406 whole entry): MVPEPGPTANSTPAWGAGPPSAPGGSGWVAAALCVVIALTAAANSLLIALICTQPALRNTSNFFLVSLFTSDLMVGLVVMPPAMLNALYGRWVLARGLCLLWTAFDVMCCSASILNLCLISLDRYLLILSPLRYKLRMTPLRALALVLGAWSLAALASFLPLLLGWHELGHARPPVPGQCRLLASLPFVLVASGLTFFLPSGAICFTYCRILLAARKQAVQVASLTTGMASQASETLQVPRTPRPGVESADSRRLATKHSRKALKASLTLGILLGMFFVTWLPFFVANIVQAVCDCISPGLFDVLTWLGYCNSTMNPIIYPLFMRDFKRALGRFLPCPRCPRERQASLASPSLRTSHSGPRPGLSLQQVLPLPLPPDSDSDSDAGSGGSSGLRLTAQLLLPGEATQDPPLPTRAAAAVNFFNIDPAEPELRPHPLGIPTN
T3 sequence (P34969 whole entry): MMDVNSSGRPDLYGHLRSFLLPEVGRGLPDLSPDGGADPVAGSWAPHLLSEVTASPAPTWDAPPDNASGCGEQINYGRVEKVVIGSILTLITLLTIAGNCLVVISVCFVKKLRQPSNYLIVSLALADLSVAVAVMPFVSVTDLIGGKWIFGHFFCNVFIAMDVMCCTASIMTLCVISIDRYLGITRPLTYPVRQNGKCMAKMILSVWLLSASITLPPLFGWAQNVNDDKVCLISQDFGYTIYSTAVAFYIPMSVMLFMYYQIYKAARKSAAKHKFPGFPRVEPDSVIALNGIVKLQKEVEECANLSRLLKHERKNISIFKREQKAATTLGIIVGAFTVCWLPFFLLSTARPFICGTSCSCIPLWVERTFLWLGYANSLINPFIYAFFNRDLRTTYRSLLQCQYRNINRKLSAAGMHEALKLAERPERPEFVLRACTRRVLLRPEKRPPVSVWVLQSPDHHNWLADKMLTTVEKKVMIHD
T11 sequence (P35367 whole entry): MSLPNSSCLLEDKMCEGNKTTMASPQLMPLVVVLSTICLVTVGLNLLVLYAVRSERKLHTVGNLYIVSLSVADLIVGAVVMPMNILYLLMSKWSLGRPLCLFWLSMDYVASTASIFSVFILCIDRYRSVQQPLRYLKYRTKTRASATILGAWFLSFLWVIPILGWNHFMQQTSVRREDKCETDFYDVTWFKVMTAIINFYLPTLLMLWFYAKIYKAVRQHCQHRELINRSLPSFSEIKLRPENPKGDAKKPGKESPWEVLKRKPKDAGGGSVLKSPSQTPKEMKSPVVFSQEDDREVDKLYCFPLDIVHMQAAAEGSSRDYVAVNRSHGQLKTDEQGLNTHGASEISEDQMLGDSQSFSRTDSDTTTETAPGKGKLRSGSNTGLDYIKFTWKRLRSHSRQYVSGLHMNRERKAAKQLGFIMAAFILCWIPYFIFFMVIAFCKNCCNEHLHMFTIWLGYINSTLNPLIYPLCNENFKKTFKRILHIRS

## Cc1ccc2c(c1)c1c(n2CCc2ccccc2)CCCN(C)C1 [1.2.2(1-2)•HCl]
[1]; 10 μM ligand
  5-HT1A % inhibition: 20%
[2]; 10 μM ligand
  5-HT2B % inhibition: 84%
[3]; 10 μM ligand
  5-HT7 % inhibition: 97%
[4]; 10 μM ligand
  5-HT2A % inhibition: 89%

## Cc1ccc2c(c1)c1c(n2CCc2ccccn2)CCCN(C)C1 [1.2.2(2-2)]
[1]
  inhibition at 1 µM: 28%
[5]
  inhibition at 1 µM: 88%
[2]; 10 μM ligand
  5-HT2B % inhibition: 10%
[6]; 10 μM ligand
  5-HT2C % inhibition: 51%
[6]; ligand concentration 1 μM
  inhibition at 1 µM: 94%
[7]; 10 μM ligand
  imidazoline I2 receptor % inhibition: 80%

## Cc1ccc2c(c1)c1c(n2CCc2cccnc2)CCCN(C)C1.Cl.Cl [1.2.2(3-2)•2HCl]
[8]
  α-Adrenoceptor α1A, % inhibition: 61%
[1]
  inhibition at 1 µM: 6%
[9]
  α-Adrenoceptor α2A, % inhibition: 71%
[10]
  α-Adrenoceptor α1B, % inhibition: 75%
[11]
  α-Adrenoceptor α1D, % inhibition: 60%
[7]; 10 μM ligand
  imidazoline I2 receptor % inhibition: 63%

## CN1CCc2c(c3ccccc3n2Cc2ccccc2)C1.Cl [1.9(1)•HCl, 5-benzyl-2-methyl-2,3,4,5-tetrahydro-1H-pyrido[4,3-b]indole hydrochloride]
[8]
  α-Adrenoceptor α1A, % inhibition: 70%
[5]
  IC50: 330 nM
  Ki: 153 nM
  nH 5-HT6: 1.04
  inhibition at 1 µM: 79%
[5]; 10 μM ligand
  5-HT6 % inhibition: 71%
[12]
  Histamine receptor H1, % inhibition: 97%
[2]
  nH 5-HT2B: 0.836
[2]; 0.1 μM ligand
  5-HT2B % inhibition: 52%
[2]; 10 μM ligand
  5-HT2B % inhibition: 99%
[2]; read-out: IC50 5-HT2B
  IC50: 106 nM
[2]; read-out: Ki 5-HT2B
  Ki: 67.2 nM
[6]
  IC50: 33.7 nM
  Ki: 17.7 nM
  nH 5-HT2C: 1.21
[6]; 0.1 μM ligand
  5-HT2C % inhibition: 79%
[6]; 10 μM ligand
  5-HT2C % inhibition: 97%
[9]
  α-Adrenoceptor α2A, % inhibition: 100%
[3]; 0.3 μM ligand
  5-HT7 % inhibition: 76%
[3]; 10 μM ligand
  5-HT7 % inhibition: 91%
[4]
  IC50: 30.1 nM
  Ki: 8.6 nM
  nH 5-HT2A: 0.765
[4]; 0.1 μM ligand
  5-HT2A % inhibition: 68%
[4]; 10 μM ligand
  5-HT2A % inhibition: 96%
[10]
  α-Adrenoceptor α1B, % inhibition: 70%
[7]; 3 μM ligand
  imidazoline I2 receptor % inhibition: 75 (3 μM) %
